{"source": "patent US20090104119A1", "about": "“Dendrimer Based Compositions And Methods Of Using The Same” (priority 2004, published 2009)", "key": {"s.c. human KB xenografts": {"system": "s.c. human KB xenografts", "assay": "Targeted drug delivery, tumor growth and survival in SCID mice with KB xenografts", "format": "in vivo, SCID CB-17 mice", "method": "Recipient animal and tumor model.\nDelivery of targeted nanoparticle therapeutic. Twice weekly, SCID mice with s.c. KB xenografts, starting on day 4 after tumor implantation, received via the tail vein an injection of either targeted or nontargeted conjugate containing methotrexate, a conjugate without methotrexate, free methotrexate, or saline as a control. The compounds were delivered in a 0.2 mL volume of saline per 20 g of mouse. The single dose of methotrexate delivered each time equaled 0.33 mg/kg. The higher doses of 1.67 and 3.33 mg/kg free methotrexate were also tested. The conjugates were delivered at equimolar concentration of methotrexate calculated based on the number of methotrexate molecules present in a nanoparticle. The conjugate without methotrexate was delivered at equimolar concentration of dendrimer. In the initial trial, six groups of mice with five mice in each group received up to 15 injections. In the follow-up trial, mice received up to 28 injections dependent on their survival. The body weights of the mice were monitored throughout the experiment as an indication of adverse effects of the drug. Histopathology of multiple organs was done at the termination of each trial and each time mouse had to be euthanized due to toxic effects or tumor burden. Tissues from lung, heart, liver, pancreas, spleen, kidney, and tumor were analyzed. Additionally, cells were isolated from tumors, stained with targeted fluorescein-labeled conjugate, and tested for the presence of folic acid receptors using flow cytometer.\nTargeted drug delivery to tumor cells through the folate receptor. The efficacy of different doses of conjugates was tested on SCID CB-17 mice bearing s.c. human KB xenografts and was compared with equivalent and higher doses of free methotrexate. Mice were maintained on the folic acid-deficient diet for 3 weeks before injection of the KB tumor cells to achieve circulating levels of folic acid that approach those in human serum and to prevent down-regulation of folate receptors on tumor xenografts (See, Mathias et al., J Nucl Med 29, 1579 (1998)). Six groups of SCID mice with five mice in each group were injected s.c. on one flank with 5×10^6 KB cells in 0.2 mL PBS suspension. The highest total dose of G5-FI-FA-MTX therapeutic used equals 55.0 mg/kg and is equivalent to a 5.0 mg/kg total cumulative dose of free methotrexate (FIG. 29). The therapeutic dose of the conjugate was compared with three cumulative doses of free methotrexate equivalent to 33.3, 21.7, and 5.0 mg/kg accumulated in 10 to 15 injections based on mouse survival. Saline and the conjugate without methotrexate (G5-FI-FA) were used as controls."}, "[1]": {"system": "KB cells which express a high cell surface FA receptor (FAR)", "assay": "Cellular uptake/binding of dendrimers in high-FAR KB cells, flow cytometry", "format": "cell-based, human", "method": "(§1) Cell culture and treatment.\nFlow Cytometry and Confocal Microscopy. The standard fluorescence of the dendrimer solutions was quantified using a Beckman spectrofluorimeter. For flow cytometric analysis of the uptake of the targeted polymer, cells were trypsinized and suspended in PBS containing 0.1% bovine serum albumin (PBSB) and analyzed using a Becton Dickinson FACScan analyzer. The FL1-fluorescence of 10,000 cells was measured and the mean fluorescence of gated viable cells was quantified. Confocal microscopic analysis was performed in cells plated on a glass cover-slip, using a Carl Ziess confocal microscope. Fluorescence and differential interference contrast (DIC) images were collected simultaneously using an argon laser, using the appropriate filters for FITC.\nThe cellular uptake of the dendrimers was measured in KB cells which express a high cell surface FA receptor (FAR). The FA-conjugated dendrimers bound to the cells in a dose-dependent fashion, with 50% binding at 10-15 nM for both the G5-FITC-FA and G5-FITC-FA-MTX, while the control dendrimer G5-FITC was not detected in the KB cells (See, e.g., FIG. 18A). Identical binding curves were obtained for the G5-FITC-FA and G5-FITC-FA-MTX when the fluorescence obtained was normalized for the quenching observed in the standard solutions of the dendrimers (See e.g., FIG. 18B).\nThe effect of free FA on the uptake of the dendrimers was tested in KB cells that express both high and low FAR. The binding of the conjugates to the low FAR-expressing KB cells was 30% of that of the high FAR-expressing cells for both the G5-FITC-FA and G5-FITC-FA-MTX (See, for e.g., FIG. 19, left panel). […] The binding and internalization of the dendrimers to KB cells was assessed by confocal microscopy. KB cells were incubated with 250 nM of the indicated dendrimers for 24 hours and confocal images were taken. Conjugates containing the targeting molecule FA internalized into KB cells within 24 h (See, e.g., FIG. 20)."}, "KB cells": {"system": "KB cells", "assay": "Inhibition of cell growth by XTT assay", "format": "cell-based, human", "method": "as §1\nEvaluation of dendrimer cytotoxicity.\nBecause the binding of the conjugate to KB cells reaches maximal uptake within 1 h (Quintana et al, 2002. Pharmaceutical Research 19: 1310-1316.), the effect of the G5-FI-FA-MTX on cell growth was initially tested by pre-incubation of cells with the conjugate for 1 h, followed by incubation in a drug-free medium for 5 d. […] When the cells were pre-incubated with dendrimers for 4 h, there was a modest decrease of about 10% in cell growth as determined by XTT assay. The cytotoxicity measurements were therefore done by incubation with the dendrimer for a minimum of 24 h, a pre-incubation time period shown to induce significant cytotoxicity.\nThe inhibition of cell growth induced by the conjugates was also tested by XTT assay which is based on the conversion of XTT to formazan by the active mitochondria of live cells (See, e.g., Roehm et al, J Immunol Methods 142, 257 (1991)).\nAs free FA blocks the uptake of the dendrimers as well as rescues cells from MTX-induced cytotoxicity, the effect of pre-incubation of cells with excess FA on the anti-proliferative effect of G5-FITC-FA-MTX was tested. KB cells were exposed to different concentrations of the conjugate or free MTX for 24 h in the absence or presence of 50 μM FA. The incubation medium was removed, the cells were rinsed and incubated with fresh medium for 5 additional days in the absence of the drugs, and the XTT assay was performed (See, e.g., FIG. 24, □, ▪, represents cells treated with MTX; Δ, ▴, represents cells treated with G5-FITC-FA-MTX).\nThe anti-proliferative effect of the MTX-conjugates was compared to conjugates that lacked either the FA or the FITC molecule. KB cells were incubated with 30 nM of the conjugates (=150 nM effective MTX concentration) for 24 h and the incubation medium was removed. The cells were rinsed and incubated for an additional 5 d in fresh medium in the absence of the drugs, and the XTT assay was performed."}}}
{"substance": "G5-(Ac)82-(FITC)5-(FA)5-MTX5 [G5-FITC-FA-MTX]", "values": [{"measurement": "effect on tumor growth", "setting": "s.c. human KB xenografts; first trial, up to 15 injections, cumulative 5.0 mg/kg methotrexate equivalents or equimolar dendrimer", "result": "as equally effective as the second highest dose of free methotrexate"}, {"measurement": "survivors at the termination of the trial", "setting": "s.c. human KB xenografts; second 99-day trial", "result": "two (of eight)"}, {"measurement": "tumor growth versus G5-FI-MTX, free methotrexate or saline", "setting": "s.c. human KB xenografts; second 99-day trial, P<0.05", "result": "slower growth of tumors"}, {"measurement": "time to maximal binding", "setting": "[1]; 100 nM", "result": "≤ 30", "unit": "min"}, {"measurement": "effect of free FA on uptake, high-FAR expressing cells", "setting": "[1]; 50 μM FA, dendrimer 30 nM", "result": "completely blocked"}, {"measurement": "inhibition of cell growth, XTT", "setting": "KB cells; 1, 2 or 3 days", "result": "time-dependent cytotoxicity"}, {"measurement": "decrease in cell growth", "setting": "KB cells; pre-incubated 4 h, XTT assay", "result": "about 10%"}, {"measurement": "growth-inhibitory effect", "setting": "KB cells; pre-incubation 1 h, then drug-free medium 5 d", "result": "failed to show any growth-inhibitory effect"}]}
